Where two headings read alike, the source gives them in different places.
Key:
AChE = molecular target: T1, AChE (Electrophorus electricus, UniProt O42275); assay: biochemical; assay type: biochemical; settings: for IC50: electric eel AChE, Ellman's method, SEM of three experiments; for Selectivity for AChE: ratio of IC50 values, BuChE over AChE; for fold stronger AChE inhibition than the standard neostigmine: relative to neostigmine
T1 construct: electric eel, and horse serum were used as source of AChE and BuChE, respectively; from tissue; host or cells: electric eel
T1 sequence (O42275 24-633): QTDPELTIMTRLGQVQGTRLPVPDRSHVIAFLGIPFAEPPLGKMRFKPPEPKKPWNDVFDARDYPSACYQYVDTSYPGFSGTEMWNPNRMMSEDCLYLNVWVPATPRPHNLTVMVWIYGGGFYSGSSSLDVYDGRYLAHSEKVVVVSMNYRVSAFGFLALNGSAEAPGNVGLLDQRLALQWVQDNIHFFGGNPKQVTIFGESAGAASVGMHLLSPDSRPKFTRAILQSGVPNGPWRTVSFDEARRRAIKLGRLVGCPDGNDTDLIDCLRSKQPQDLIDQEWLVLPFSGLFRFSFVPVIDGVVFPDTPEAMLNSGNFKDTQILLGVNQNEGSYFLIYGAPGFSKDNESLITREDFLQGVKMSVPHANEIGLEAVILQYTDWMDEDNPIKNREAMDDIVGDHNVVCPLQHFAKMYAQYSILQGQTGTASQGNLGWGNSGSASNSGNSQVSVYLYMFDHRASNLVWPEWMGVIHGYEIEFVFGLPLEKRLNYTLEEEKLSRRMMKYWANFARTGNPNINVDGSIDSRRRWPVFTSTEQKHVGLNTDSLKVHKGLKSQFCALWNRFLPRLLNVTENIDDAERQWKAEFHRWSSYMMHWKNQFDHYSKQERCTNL
Procedure: (§1) The target compounds, coumarinyl thiazoles 6(a–o) and coumarinyl oxadiazoles 11(a–h), were screened for their inhibitory activity against AChE and BuChE by Ellman's method.
(§2) For the determination of cholinesterase inhibition, electric eel, and horse serum were used as source of AChE and BuChE, respectively. […] The compounds with 1 Mm concentration were prepared in DMSO. Assay was carried out in 96 well-plate in triplicates. The reaction mixture comprised of 20 μL of buffer (tris HCl 50 mM, 0.02 M MgCl2.6H2O, 0.1 mM NaCl) at pH 8, 10 μL of the test compound, 10 μL enzyme acetylcholine or butyrylcholinesterase of 0.03 U/mL (500 U of AChE and 700 U/mg of BuChE). The contents were incubated for 10 min at 25°C followed by the addition of 1 mM of 10 μL of substrate […] for AChE and butyrylthiocholine iodide for BuChE and incubated again at 25°C for 15 min. A 50 μL of 3 mM DTNB as a coloring agent was added and incubated at 25°C for further 10 min. […] The enzyme dilutions were made by using buffer of pH 8 (tris base 50 mM and having 0.1% BSA).

BuChE = molecular target: T2, BuChE (Equus caballus, UniProt P81908); assay: biochemical; assay type: biochemical; settings: for Selectivity for BuChE: ratio of IC50 values, AChE over BuChE
T2 construct: electric eel, and horse serum were used as source of AChE and BuChE, respectively; from tissue; host or cells: horse serum
T2 sequence (P81908 whole entry): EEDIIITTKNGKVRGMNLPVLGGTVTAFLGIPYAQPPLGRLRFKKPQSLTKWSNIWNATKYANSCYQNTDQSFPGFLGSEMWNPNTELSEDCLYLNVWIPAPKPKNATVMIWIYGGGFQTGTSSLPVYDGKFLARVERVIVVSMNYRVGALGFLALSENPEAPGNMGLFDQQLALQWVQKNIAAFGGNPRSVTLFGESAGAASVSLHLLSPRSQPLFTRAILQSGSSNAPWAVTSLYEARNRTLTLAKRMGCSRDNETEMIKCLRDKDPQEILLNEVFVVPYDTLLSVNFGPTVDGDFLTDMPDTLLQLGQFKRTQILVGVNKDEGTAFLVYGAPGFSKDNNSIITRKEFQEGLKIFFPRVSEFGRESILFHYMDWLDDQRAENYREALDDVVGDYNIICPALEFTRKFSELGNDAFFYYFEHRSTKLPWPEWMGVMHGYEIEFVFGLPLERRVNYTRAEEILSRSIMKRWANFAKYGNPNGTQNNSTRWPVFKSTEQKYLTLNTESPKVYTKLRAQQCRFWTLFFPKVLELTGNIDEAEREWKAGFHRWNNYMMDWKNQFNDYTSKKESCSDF
Procedure: as §1, §2

[1] = horse serum BuChE, Ellman's method, SEM of three experiments, read-out: BuChE IC50 (μM) ± SEM

Row | Structure (SMILES) | IC50 (AChE) [µM] | Selectivity for AChE (AChE) | IC50 (BuChE; [1]) [µM] | Selectivity for BuChE (BuChE) | fold stronger AChE inhibition than the standard neostigmine (AChE) | BuChE inhibition, in words (BuChE) | fold more potent against BuChE than neostigmine (BuChE; relative to neostigmine) | AChE inhibition, in words (AChE) | IC50 (BuChE) [µM]
1 | C/C(=N\Nc1nc(-c2cc3ccccc3oc2=O)cs1)c1ccccc1 [Compound 6a] | 16.9 ± 0.32 | 1.93 | 32.7 ± 2.08 | 0.51 | – | – | – | – | –
2 | CC(=NNc1nc(-c2cc3ccccc3oc2=O)cs1)c1cccc(N)c1 [Compound 6b] | 0.87 ± 0.09 | 35.8 | 31.22 ± 0.17 | 0.027 | ~ 32 fold | – | – | – | –
3 | C/C(=N\Nc1nc(-c2cc3ccccc3oc2=O)cs1)c1ccccc1Br [Compound 6c] | 21.2 ± 0.23 | 0.91 | 19.3 ± 1.42 | 1.09 | – | – | – | – | –
4 | C/C(=N\Nc1nc(-c2cc3ccccc3oc2=O)cs1)c1cccc(Br)c1 [Compound 6d] | 30.1 ± 1.73 | 0.50 | 15.2 ± 0.53 | 1.98 | – | moderate inhibitors | – | – | –
5 | C/C(=N\Nc1nc(-c2cc3ccccc3oc2=O)cs1)c1ccc(Br)cc1 [Compound 6e] | 33.42 ± 0.18 | 1.47 | 49.12 ± 0.12 | 0.68 | – | – | – | – | –
6 | C/C(=N\Nc1nc(-c2cc3ccccc3oc2=O)cs1)c1ccccc1F [Compound 6f] | 23.1 ± 0.32 | 1.39 | 32.1 ± 1.21 | 0.71 | – | – | – | – | –
7 | C/C(=N\Nc1nc(-c2cc3ccccc3oc2=O)cs1)c1ccc(F)cc1 [Compound 6g] | 36.34 ± 0.18 | 0.77 | 28.01 ± 0.21 | 1.29 | – | – | – | – | –
8 | COc1ccc(C(C)=NNc2nc(-c3cc4ccccc4oc3=O)cs2)cc1 [Compound 6h] | 1.08 ± 0.84 | 17.8 | 19.32 ± 0.11 | 0.055 | 26 fold | moderate inhibitors | – | – | –
9 | COc1ccc(/C(C)=N/Nc2nc(-c3cc4ccccc4oc3=O)cs2)cc1F [Compound 6i] | 2.34 ± 1.43 | 9.44 | 22.1 ± 1.08 | 0.105 | – | – | – | – | –
10 | COc1ccc(/C(C)=N/Nc2nc(-c3cc4ccccc4oc3=O)cs2)c(O)c1 [Compound 6j] | 9.05 ± 0.23 | 1.22 | 11 ± 3.37 | 0.81 | – | – | – | – | –
11 | COc1cc(C(C)=NNc2nc(-c3cc4ccccc4oc3=O)cs2)ccc1O [Compound 6k] | 5.86 ± 0.15 | 3.29 | 19.1 ± 1.32 | 0.303 | – | – | – | – | –
12 | COc1ccc(/C(C)=N/Nc2nc(-c3cc4ccccc4oc3=O)cs2)cc1I [Compound 6l] | 13.8 ± 1.58 | 2.32 | 32.1 ± 1.08 | 0.42 | – | – | – | – | –
13 | C/C(=N\Nc1nc(-c2cc3ccccc3oc2=O)cs1)c1ccc(Cl)cc1N [Compound 6m] | 22.74 ± 0.16 | 1.63 | 37.2 ± 0.55 | 0.61 | – | – | – | – | –
14 | O=c1oc2ccccc2cc1-c1csc(NN=C(c2ccccc2)c2ccccc2)n1 [Compound 6n] | 11.2 ± 0.17 | 1.94 | 21.6 ± 3.09 | 0.51 | – | – | – | – | –
15 | C/C(=N\Nc1nc(-c2cc3ccccc3oc2=O)cs1)c1cc2ccccc2oc1=O [Compound 6o] | 10.1 ± 1.12 | 2.28 | 23.2 ± 0.29 | 0.43 | – | – | – | – | –
16 | CNCn1nc(-c2cc3ccccc3oc2=O)oc1=S [Compound 11a] | 6.07 ± 0.23 | 0.056 | 0.341 ± 0.06 | 17.8 | – | – | – | – | –
17 | CCCCNCn1nc(-c2cc3ccccc3oc2=O)oc1=S [Compound 11b] | 9.41 ± 0.55 | 0.081 | 0.77 ± 0.08 | 12.2 | – | – | – | – | –
18 | Cc1ccc(NCn2nc(-c3cc4ccccc4oc3=O)oc2=S)cc1 [Compound 11c] | 23.8 ± 0.94 | 0.33 | 8.01 ± 3.58 | 2.97 | – | – | – | – | –
19 | O=c1oc2ccccc2cc1-c1nn(CNc2ccccc2Cl)c(=S)o1 [Compound 11d] | 16.6 ± 2.72 | 0.20 | 3.48 ± 1.58 | 4.77 | – | – | – | – | –
20 | O=c1oc2ccccc2cc1-c1nn(CNc2cccc(Cl)c2)c(=S)o1 [Compound 11e] | 12.4 ± 0.08 | 0.012 | 0.15 ± 0.09 | 82.6 | – | – | about 107 fold | – | –
21 | O=c1oc2ccccc2cc1-c1nn(CNc2ccc(Cl)cc2)c(=S)o1 [Compound 11f] | 18.6 ± 0.32 | 0.65 | 12.1 ± 1.08 | 1.53 | – | – | – | – | –
22 | O=c1oc2ccccc2cc1-c1nn(CN(c2ccccc2)c2ccccc2)c(=S)o1 [Compound 11g] | 9.57 ± 1.42 | 0.47 | 4.54 ± 0.54 | 2.10 | – | – | – | moderate inhibitors | –
23 | O=c1oc2ccccc2cc1-c1nn(CN2CCOCC2)c(=S)o1 [Compound 11h] | 12.2 ± 1.67 | 1.09 | 13.5 ± 0.41 | 0.91 | – | – | – | moderate inhibitors | –
24 | CN(C)C(=O)Oc1cccc([N+](C)(C)C)c1 [Neostigmine, reference compound] | 28.2 ± 2.01 | 0.57 | – | 1.75 | – | – | – | – | 16.1 ± 1.13

Reference: article PMC5879128, “Combined in Vitro and in Silico Studies for the Anticholinesterase Activity and Pharmacokinetics of Coumarinyl Thiazoles and Oxadiazoles” (Frontiers in Chemistry, 2018)
